The text below walks through data of ChEMBL document CHEMBL1127870, “Substituted 4H-pyrido[1,2-a]pyrimidin-4-one angiotensin II receptor antagonists” (Bioorg Med Chem Lett, 1994).

The test system of one assay is Rattus norvegicus. Briefly: Tested for drop in blood pressure over 5 hr when administered orally at 10 mg/kg in high renin rat hypertension model. The format is functional. The following applies: route oral.
In turn, `CCCOc1nc2ccccn2c(=O)c1Cc1ccc(-c2ccccc2-c2nn[nH]n2)cc1` displayed a Blood pressure of 50 mmHg.

Another assay deals with T1, Type-1 angiotensin II receptor (Bos taurus, UniProt P25104).
T1 sequence (P25104 whole entry): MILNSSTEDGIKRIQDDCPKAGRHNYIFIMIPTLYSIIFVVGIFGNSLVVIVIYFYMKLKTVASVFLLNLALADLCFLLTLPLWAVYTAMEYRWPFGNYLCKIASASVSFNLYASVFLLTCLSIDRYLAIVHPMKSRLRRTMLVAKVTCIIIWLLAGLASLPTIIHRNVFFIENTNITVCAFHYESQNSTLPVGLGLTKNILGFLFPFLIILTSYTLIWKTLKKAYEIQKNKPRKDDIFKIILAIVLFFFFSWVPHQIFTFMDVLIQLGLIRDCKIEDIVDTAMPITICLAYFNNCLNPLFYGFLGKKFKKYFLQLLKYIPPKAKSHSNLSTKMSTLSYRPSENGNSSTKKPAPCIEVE
Nature of the assay: Binding affinity for angiotensin II receptor of bovine adrenal cortex. The assay is classed as tissue-based.
Conditions: not given
Molecule `CCOC(=O)c1ccc2nc(OC(C)C)c(Cc3ccc(-c4ccccc4-c4nn[nH]n4)cc3)c(=O)n2c1` showed an IC50 of 4.9 µM.

In the case of `CCCOc1nc2c(C)cccn2c(=O)c1Cc1ccc(-c2ccccc2-c2nn[nH]n2)cc1`, the IC50 was 6 µM.

With `CCCOc1nc2cc(C)ccn2c(=O)c1Cc1ccc(-c2ccccc2-c2nn[nH]n2)cc1`, the IC50 was 4 µM.

With `CCOc1nc2ccccn2c(=O)c1Cc1ccc(-c2ccccc2-c2nnn[nH]2)cc1`, the IC50 was determined as 4.4 µM.

The molecule `CCCOc1nc2ccccn2c(=O)c1Cc1ccc(-c2ccccc2-c2nn[nH]n2)cc1` had an IC50 of 0.25 µM.

For the molecule `CCCOc1nc2ccc(C)cn2c(=O)c1Cc1ccc(-c2ccccc2-c2nn[nH]n2)cc1`, the IC50 stood at 1.6 µM.

On to `CC(C)COc1nc2ccc(C(C)O)cn2c(=O)c1Cc1ccc(-c2ccccc2-c2nn[nH]n2)cc1` (centres undefined), for which the IC50 turned out to be 1 µM.

`Cc1ccc2nc(OC(C)C)c(Cc3ccc(-c4ccccc4-c4nnn[nH]4)cc3)c(=O)n2c1` yielded an IC50 of 6 µM.

On to `CCCCOc1nc2ccccn2c(=O)c1Cc1ccc(-c2ccccc2-c2nnn[nH]2)cc1`, for which the IC50 was found to be 2.4 µM.

`Cc1ccc2nc(OCC(C)C)c(Cc3ccc(-c4ccccc4-c4nnn[nH]4)cc3)c(=O)n2c1` showed an IC50 of 4 µM.

Regarding `COc1nc2ccccn2c(=O)c1Cc1ccc(-c2ccccc2-c2nn[nH]n2)cc1`, the IC50 is 14 µM.

Turning to `CC(C)Oc1nc2ccc(C(=O)O)cn2c(=O)c1Cc1ccc(-c2ccccc2-c2nnn[nH]2)cc1`, the IC50 was 69.3 µM.

Take `CCCCc1nc(Cl)c(CO)n1Cc1ccc(-c2ccccc2-c2nn[nH]n2)cc1` [LOSARTAN]: the IC50 turned out to be 0.3 µM.
